In patent US11492325B2, “Compounds as inhibitors of sodium channels” (Human BioMolecular Research Institute, priority 2016, dated 2022):
Where a name gives a salt, the structure may show the parent alone. Read-outs that look alike come from different tables or passages of the source.

Assays:
[1] = system: cardiomyocytes derived from hiPSCs from a LQTS3 patient; experiment: cells; conditions: Homo sapiens, Cardiomyocyte
[2] = system: normal human induced pluripotent stem cell (hiPSC) cardiomyocyte; conditions: for WT-Fold Prolongation: APD; for WT-Cessation Dose (μM): cessation of beating
[3] = system: cardiomyocytes derived from hiPSCs from a LQTS3 patient; conditions: for LQT-EC50 (μM) Shortening: AP shortening
[4] = read-out: LQT-EC50 (μM) Shortening, LQT-3 cardiomyocytes, AP shortening
[5] = WT cardiomyocytes, AP prolongation
[6] = LQT-3 cardiomyocytes, cessation of beating
[7] = read-out: LQT-IC50 (uM)-Shortening
[8] = read-out: LQT-EC50 (μM) Shortening, pyridyl derivatives

Row | SMILES | WT-EC50 (μM) Prolongation [2, 5] | LQT-Fold Shortening ([3]; LQT-3 cardiomyocytes) | IC50 [1, 7] [µM] | WT-Fold Prolongation ([2]; normal hiPSC cardiomyocytes) | Cessation of Beating ([2]; normal hiPSC cardiomyocytes) | WT-EAD Dose ([2]; normal hiPSC cardiomyocytes) [µM] | LQT-Cessation Dose ([3]; LQT3 cardiomyocytes) | LQT-Fold Shortening ([3]; LQT3 cardiomyocytes) | other results
1 | NC(COc1cccc2ccccc12)c1ccccc1 (centres unmarked) [Compound 129] | Does Not Prolong AP | 1.316 | – | – | – | – | – | – | EC50 [1, 4]: 0.82 µM; LQT-Cessation Dose [3, 6]: 66 µM
2 | Cc1cc(C)cc(OC[C@@H](N)C2CC2)c1.Cl [Compound 62] | – | – | 1.03 | 1.585 | 200 µM | 66 | 200 µM | 1.19 | –
3 | NC(COc1ccncc1)c1ccccc1 (centres unmarked) [Compound 126] | Does Not Prolong AP | 1.281 | – | – | – | – | – | – | EC50 [1, 4]: 3.82 µM; EC50 [1, 8]: ~4 µM; WT-Cessation Dose (μM) ([2]; WT cardiomyocytes): No cessation of beating
4 | CCc1ccccc1OCC(N)c1ccccc1 (centres unmarked) [Compound 24] | – | – | 0.38 | None | 66 µM | – | 22 µM | 1.979 | WT-Prolongation Dose ([2]; normal hiPSC cardiomyocytes): None
5 | CC(N)COC1CCCCC1.Cl (centres unmarked) [Compound 87] | – | – | 34.8 | None | None | – | None | 1.611 | WT-Prolongation Dose ([2]; normal hiPSC cardiomyocytes): None
6 | CCCc1ccccc1OCC(C)N (centres unmarked) [Compound 49, 1-(2-Propylphenoxy)propan-2-amine] | – | – | 0.85 | 1.385 | 200 µM | – | 133 µM | 1.192 | –
7 | Cl.NC(COc1cccc(C(F)(F)F)c1)c1ccccc1 (centres unmarked) [Compound 81, 1-phenyl-2-(3-(trifluoromethyl)phenoxy)ethan-1-amine] | – | – | 4.07 | None | 66 µM | – | 66 µM | 1.539 | WT-Prolongation Dose ([2]; normal hiPSC cardiomyocytes): None
8 | CCCCNC(C)COc1c(C)cccc1C (centres unmarked) [Compound 39, 1-(2,6-dimethylphenoxy)-N-butylpropan-2-amine] | – | – | 0.73 | 3.827 | 133 µM | 66 | 66 µM | 1.180 | –
9 | Cc1ccc(OCC(N)c2ccccc2)cn1 (centres unmarked) [Compound 114] | Does Not Prolong AP | 1.233 | – | – | – | – | – | – | EC50 [1, 4]: 67.5 µM; WT-Cessation Dose (μM) ([2]; WT cardiomyocytes): No cessation of beating
10 | CCCc1ccccc1OCC(N)c1ccccc1 (centres unmarked) [Compound 23, 1-phenyl-2-(2-propylphenoxy)ethanamine] | – | – | 0.78 | None | 22 µM | – | 22 µM | 1.32 | WT-Prolongation Dose ([2]; normal hiPSC cardiomyocytes): None
11 | COc1ccccc1OCC(N)c1ccccc1 (centres unmarked) [Compound 26, 2-(2-methoxyphenoxy)-1-phenylethanamine] | – | – | 0.13 | 2.502 | 22 µM | 7.4 | 133 µM | 1.482 | –
12 | Cc1cc(C)cc(OC[C@H](N)C2CC2)c1.Cl [Compound 63] | – | – | 7.5 | 1.577 | None | 66 | 200 µM | 1.11 | –
13 | COCCNC(COc1c(C)ccnc1C)c1ccccc1 (centres unmarked) [Compound 122] | Does Not Prolong AP | 1.188 | – | – | – | – | – | – | EC50 [1, 4]: 46.6 µM
14 | Cc1cccc(Cl)c1OC[C@H](C)N [Compound 57, (S)-1-(2-chloro-6-methylphenoxy)propan-2-amine hydrochloride] | – | – | 0.19 | 3.615 | None | 200 | None | 1.14 | –
15 | CC(=O)NC(COc1c(C)cccc1C)c1ccccc1 (centres unmarked) [Compound 28, N-(2-(2,6-dimethylphenoxy)-1-phenylethyl)acetamide] | – | – | > 0.8 | None | 66 µM | – | 66 µM | 1.620 | WT-Prolongation Dose ([2]; normal hiPSC cardiomyocytes): None
16 | Cc1ccccc1OCC(N)c1ccc2ccccc2c1 (centres unmarked) [Compound 133] | Does Not Prolong AP | 1.302 | – | – | – | – | – | – | EC50 [1, 4]: 8.83 µM; LQT-Cessation Dose [3, 6]: 133 µM
17 | C[C@H](N)COc1ccccc1.Cl [Compound 72] | – | – | – | 2.93 | None | 133 | None | – | IC50 ([1]; read-out: LQT-IC50 (prolongation)): 129 µM; LQT-Fold (prolongation) ([3]; cell in fold shortening column marked (prolongation)): 1.133 (prolongation)

Row | SMILES | WT-EC50 (μM) Prolongation [2, 5] | LQT-Fold Shortening ([3]; LQT-3 cardiomyocytes) | IC50 [1, 7] [µM] | WT-Fold Prolongation ([2]; normal hiPSC cardiomyocytes) | Cessation of Beating ([2]; normal hiPSC cardiomyocytes) | WT-EAD Dose ([2]; normal hiPSC cardiomyocytes) [µM] | LQT-Cessation Dose ([3]; LQT3 cardiomyocytes) | LQT-Fold Shortening ([3]; LQT3 cardiomyocytes) | other results
18 | Cc1ncccc1OCC(N)c1ccccc1 (centres unmarked) [Compound 111] | Does Not Prolong AP | 1.426 | – | – | – | – | – | – | EC50 [1, 4]: 8.57 µM; EC50 [1, 8]: ~8 µM; LQT-Shortening Dose (μM) ([3]; LQT-3 cardiomyocytes): Does Not Shorten
19 | Cc1cccc(C)c1OC[C@@H](N)C1CC1.Cl [Compound 60] | – | – | 0.11 | 2.805 | – | – | – | 1.22 | Cessation of Beating ([2]; human, 5 min): 200 µM; WT-EAD Dose ([2]; human, 5 min): 66 µM; LQT-Cessation Dose ([3]; human, 5 min): 200 µM
20 | CCc1ccccc1OCC(C)N (centres unmarked) [Compound 50, 1-(2-Ethylphenoxy)propan-2-amine] | – | – | 6.01 | 1.392 | None | – | None | 1.12 | –
21 | Cc1cccc(C)c1OCC(N)c1ccc2ccccc2c1 (centres unmarked) [Compound 131] | Does Not Prolong AP | 1.309 | – | – | – | – | – | – | EC50 [1, 4]: 4.73 µM; LQT-Cessation Dose [3, 6]: 133 µM
22 | NC(COc1ccc2ccccc2c1)c1ccccc1 (centres unmarked) [Compound 130] | Does Not Prolong AP | 1.459 | – | – | – | – | – | – | EC50 [1, 4]: 8.7 µM; LQT-Cessation Dose [3, 6]: 133 µM
23 | Cc1cccnc1OCC(=NOCc1ccccc1)c1ccccc1 [Compound 19] | – | – | 1.38 | None | 133 µM | – | 133 µM | 1.406 | EC50 [1, 8]: 1.38 µM; WT-Prolongation Dose ([2]; normal hiPSC cardiomyocytes): None; WT-Cessation Dose ([2]; pyridyl derivatives): 133 µM; WT-EC50 (μM) Prolongation ([2]; pyridyl derivatives): Does Not Prolong AP; LQT-Fold Shortening ([3]; pyridyl derivatives): 1.406; LQT-Shortening Dose ([3]; pyridyl derivatives): 66 µM
24 | COc1ccccc1OCC(C)N (centres unmarked) [Compound 52, 1-(2-Methoxyphenoxy)propan-2-amine] | – | – | – | 2.499 | None | 133 | None | None | LQT-Shortening Dose ([3]; LQT3 cardiomyocytes): None
25 | Cc1cccc(OCC(C)N)c1.Cl (centres unmarked) [Compound 86] | – | – | – | 1.68 | None | 66 | None | 1.418 | LQT-IC50 (uM)-Shortening ([3]; APD shortening, LQT3 cardiomyocytes): Shortens
26 | COCCNC(COc1cc(C)cc(C)c1)C1CC1.Cl (centres unmarked) [Compound 68] | – | – | 0.022 | 1.686 | 200 µM | 66 | 200 µM | 1.11 | –
27 | Cc1ccc(OCC(N)c2ccccc2)c(C)n1 (centres unmarked) [Compound 119] | Does Not Prolong AP | 1.123 | – | – | – | – | – | – | WT-Cessation Dose (μM) ([2]; WT cardiomyocytes): No cessation of beating; LQT-EC50 (μM) Shortening ([3]; LQT-3 cardiomyocytes): Shortens
28 | Cc1cc(C)cc(OCC(N)c2ccc3ccccc3c2)c1 (centres unmarked) [Compound 135] | Does Not Prolong AP | 1.667 | – | – | – | – | – | – | LQT-Shortening Dose ([3]; LQT-3 cardiomyocytes): 133 µM; LQT-EC50 (μM) Shortening ([3]; LQT-3 cardiomyocytes): Shortens; LQT-Cessation Dose [3, 6]: 200 µM
29 | COCCNC(COc1cnccc1C(F)(F)F)c1ccccc1 (centres unmarked) [Compound 124] | Does Not Prolong AP | 1.601 | – | – | – | – | – | – | LQT-EC50 (μM) Shortening ([3]; LQT-3 cardiomyocytes): Shortens
30 | Cc1cccc2c1OCC(C1CC1)NC2.Cl (centres unmarked) [Compound 74] | – | – | – | 2.633 | None | 133 | None | None | LQT-Shortening Dose ([3]; LQT3 cardiomyocytes): None
31 | Cc1cccc(C)c1OCC(C)Nc1ccccc1 (centres unmarked) [Compound 43, 1-(2,6-dimethylphenoxy)-N-phenylpropan-2-amine] | – | – | – | None | None | – | None | None | WT-Prolongation Dose ([2]; normal hiPSC cardiomyocytes): None; LQT-Shortening Dose ([3]; LQT3 cardiomyocytes): None
32 | C[C@H](N)COc1ccccc1Cl [Compound 59] | – | – | – | 2.832 | None | 133 | None | None | LQT-Shortening Dose ([3]; LQT3 cardiomyocytes): None
33 | CCCNC(C)COc1c(C)cccc1C (centres unmarked) [Compound 38, 1-(2,6-dimethylphenoxy)-N-propylpropan-2-amine] | – | – | – | 4.584 | 200 µM | 66 | 200 µM | 1.19 | –
34 | NC(COc1cc(C(F)(F)F)ccn1)c1ccccc1 (centres unmarked) [Compound 97, 1-phenyl-2-((4-(trifluoromethyl)pyridin-2-yl)oxy)ethan-1-amine] | – | – | – | None | None | 133 | None | 1.1 | WT-Prolongation Dose ([2]; normal hiPSC cardiomyocytes): None
